Test results as given in PubChem BioAssay (NCI).
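Results reflect a 48-hour exposure of cells in 96-well plates to compound at five concentrations. TGI is the concentration that stops growth completely.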

Key:
Assay in all cases: growth of human tumour cells (NCI), 48 h
[1] = tested on: A498 renal
[2] = tested on: ACHN renal
[3] = tested on: HCT-116 colon
[4] = tested on: HOP-92 NSCLC
[5] = tested on: KM12 colon
[6] = tested on: M14 melanoma
[7] = tested on: NCI-H226 lung
[8] = tested on: NCI-H460 lung
[9] = tested on: NCI/ADR-RES ovarian
[10] = tested on: OVCAR-3 ovarian
[11] = tested on: RXF 393 renal
[12] = tested on: SK-MEL-5 melanoma

SMILES	TGI [1] [µM]	TGI [2] [µM]	TGI [3] [µM]	TGI [4] [µM]	TGI [5] [µM]	TGI [6] [µM]	TGI [7] [µM]	TGI [8] [µM]	TGI [9] [µM]	TGI [10] [µM]	TGI [11] [µM]	TGI [12] [µM]
CCOc1ccc(NC(=O)/C(=N\NC(C)(C)C)C2C(=O)Nc3ccccc3S2=O)cc1 (stereo not drawn)	> 100	> 100	> 100	> 100	> 100	> 100	> 100	> 100	> 100	> 100	> 100	> 100
CCOC(=O)c1sc(N/N=C2\NC(=O)/C(=C/c3ccc([N+](=O)[O-])cc3)S2)nc1C	58.5	58.3	36.7	44.6	57.1	> 100	55.1	48.2	66.1	49.9	84	31
CC=CCOc1cc(NC(=S)OC(C)C)ccc1Cl (mixture of isomers)	30.7	31.6	33.6	24.9	33.4	63.3	33	31.8	31.9	38.1	30.8	33.1
Cn1c(-c2cccs2)cc(-c2cccs2)c1-c1ccco1	> 79.2	> 100	> 100	> 100	22.9	> 84.5	> 100	> 100	> 100	> 100	> 82.7	> 100
Cc1nc2c(nc1C)-c1c(c3c(n1C)C(=O)CCC3)C(=O)C2=O	2.59	1.66	1.44	2.94	5.81	1.29	2.77	2.7	2.05	0.646	0.474	0.844
Oc1ccccc1C=Nc1ccc(-c2nc3ccccc3[nH]2)cc1	> 100	> 100	> 100	> 100	> 100	> 100	> 100	> 100	53.2	> 100	> 100	> 100
CC(C)(C)c1cc2c(O)c(c1)Cc1cc(C(C#N)(Cc3ccc4ccccc4c3)Cc3ccc4ccccc4c3)cc(c1O)Cc1cc(C(C)(C)C)cc(c1O)Cc1cc(C(C#N)(Cc3ccc4ccccc4c3)Cc3ccc4ccccc4c3)cc(c1O)C2	> 100	> 100	> 100	> 100	> 100	> 100	> 100	> 100	> 100	> 100	> 100	> 100
Cc1ccc2c(n1)C(=O)C=CC2=O	31.1	8.63	4.12	13.7	46.2	32.3	42.8	36.2	48.6	8.54	13.6	29.4
Cc1cc(N=Nc2c(O)ccc3ccccc23)ccc1N=Nc1cccc([N+](C)(C)C)c1	98.8	> 84.7	75.5	> 100	17.3	59.3	30.2	30.9	> 100	41	48.7	> 23.7
N#CC(=C1CCCCC1)c1nc2ccccc2o1	> 100	> 100	> 100	> 100	> 100	> 100	> 100	> 100	> 100	> 100	> 100	> 100
COc1cc(/C=C2/SC(c3ccccc3)N(c3ccccc3)C2=O)cc(OC)c1OC (stereo not drawn)	> 100	> 100	> 100	> 100	> 100	> 100	> 100	> 100	> 100	> 100	> 100	> 100
O=C(Nc1nn(C(=O)c2ccc(Cl)cc2)c(=O)s1)c1ccc(Cl)cc1	> 100	> 100	> 100	> 100	> 100	> 100	> 100	> 100	> 100	> 100	> 100	> 100
O=C(Nc1c(C(F)(F)F)cc(-c2ccccc2)[nH]c1=O)N1CCOCC1	> 100	> 100	> 100	> 100	> 100	> 100	> 100	> 100	> 100	> 100	> 100	> 100
O=C(/C=C1\C[C@H]2C=Nc3ccccc3C(=O)N2C1)NCCCCNC(=O)/C=C1\C[C@H]2C=Nc3ccccc3C(=O)N2C1	32.9	12.6	25.9	20.4	33.3	19.5	59.5	37.5	47.1	36.3	19.2	27.1
